Experimental data from patent US11725036B2, “Modified lipidated relaxin B chain peptides and their therapeutic use” (Sanofi, priority 2018, dated 2023).
In brackets after ≈: the same amount, converted by molar mass. Read-outs that look alike come from different tables or passages of the source. Starred links: 1 amine or outer side, 2 acyl side, 3 side chain; linkers in the order of their positions; H or OH if unused. Non-standard residues stand in square brackets, D forms with d. Residues, ends and D or L forms follow the SMILES beside them. Groups on a side chain read outwards from the residue. *: point of attachment. X5 = CCCCCCCCCCCCCCCC(=O)N[C@@H](CCC(=O)N[C@@H](CCC(=O)N[C@@H](CCC(=O)NCCCOCCOCCOCCCNC(=O)CCC(=O)NCCCOCCOCCOCCCNC(=O)CCC(=O)NCCCOCCOCCOCCCNC(=O)CCC(=O)NCCCOCCOCCOCCCN*)C(=O)O)C(=O)O)C(=O)O; X1 = CCCCCCCCCCCCCCCC(=O)N[C@@H](CCC(=O)N[C@@H](CCC(=O)N[C@@H](CCC(=O)NCCCOCCOCCOCCCNC(=O)CCC(=O)NCCCOCCOCCOCCCNC(=O)CCC(=O)NCCCOCCOCCOCCCN*)C(=O)O)C(=O)O)C(=O)O; γGlu = O=C(O)[C@H](CCC(=O)[*:2])N[*:1]; Palmitoyl = CCCCCCCCCCCCCCCC(=O)*; Suc = O=C(CCC(=O)[*:2])[*:1]; hLys = NCCCCC[C@H](N)C(=O)O; AEEA = NCCOCCOCC(=O)O; Aib = CC(C)(N)C(=O)O

What was measured:
[1] = target: T1, RXFP1 (Homo sapiens, UniProt Q9HBX9); test: OVCAR5 cAMP assay (HTRF); type: cell-based; conditions: for EC50: OVCAR 5 cells expressing endogenous RXFP1, cAMP readout; for Emax: OVCAR 5 cells, maximal cAMP relative to H2-relaxin
T1 construct: OVCAR5 cells expressing endogenous RXFP1; endogenous in cells; host or cells: OVCAR5
T1 sequence (Q9HBX9 1-757): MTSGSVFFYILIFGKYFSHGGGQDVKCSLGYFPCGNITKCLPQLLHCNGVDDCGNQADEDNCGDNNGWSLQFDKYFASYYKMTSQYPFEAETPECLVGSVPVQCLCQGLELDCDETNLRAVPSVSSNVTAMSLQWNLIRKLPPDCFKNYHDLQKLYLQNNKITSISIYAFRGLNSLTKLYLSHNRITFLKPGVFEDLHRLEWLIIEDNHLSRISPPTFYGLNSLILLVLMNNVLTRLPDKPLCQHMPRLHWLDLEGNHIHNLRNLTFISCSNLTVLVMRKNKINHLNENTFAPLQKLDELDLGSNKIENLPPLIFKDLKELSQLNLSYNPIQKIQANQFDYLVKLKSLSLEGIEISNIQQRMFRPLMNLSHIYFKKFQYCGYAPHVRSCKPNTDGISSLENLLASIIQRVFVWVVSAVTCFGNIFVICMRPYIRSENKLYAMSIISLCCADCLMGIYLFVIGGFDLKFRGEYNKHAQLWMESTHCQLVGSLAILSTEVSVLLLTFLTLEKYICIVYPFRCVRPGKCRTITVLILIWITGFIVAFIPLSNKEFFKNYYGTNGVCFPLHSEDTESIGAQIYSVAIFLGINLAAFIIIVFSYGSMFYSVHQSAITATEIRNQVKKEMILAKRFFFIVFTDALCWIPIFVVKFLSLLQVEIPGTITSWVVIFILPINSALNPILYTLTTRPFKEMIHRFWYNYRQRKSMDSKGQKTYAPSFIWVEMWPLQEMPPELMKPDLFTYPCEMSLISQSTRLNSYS
How it was run: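 Peptide agonism measured as intracellular cAMP (HTRF) after 30 min at 37° C in serum-free medium, following 40 min 1 mM IBMX preincubation of OVCAR5 cells. Nonlinear regression gave EC50; Emax % = 100 × compound maximal cAMP / H2-relaxin maximal cAMP.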

[2] = Solubility testing in buffer; type: physicochemical; conditions: target solubility 10.0 mg/ml
Method: Prior to the testing of solubility of a peptide batch, its purity (HPLC-UV) was determined.
Acetate Buffer 50 mM pH4.5: 0.75 g C2H3C02Na,3H2O (Sigma S7545)+0.35 ml CH3CO2H 100% solution dissolved in Millipore water, adjusted to pH with diluted (1:1) CH3CO2H and diluted to 250 ml with Millipore water.
In a 4 ml Ependorph vial, an accurately weighed sample of compound was diluted in study media to obtain target concentration of 2, 6 or 10 mg/ml of pure compound. The sample vials were shacked (rock 'roll shaker) for ˜19 h. 300 μL aliquots were filtered through a Millipore “Solvinert” plate (0.45 μm-PTFE hydrophilic).
pH was measured with a micro electrode
Waters Acquity UPLC System with DAD detector
Column: Waters Peptide Column CSH C18 (130 Å; 1.7 μm; 50*2.1 mm)
Column temperature: 60° C.
Full loop (about 5 μL)—overfill factor 5
Weak et Strong wash: H2O/ACN (75/25; V/V); Seal wash: H2O/IsOH (95/5; V/V). Mobile phase:
Solvent A: 0.05% TFA in H2O; Solvent B: 0.035% TFA in CH3CN
Gradient: from 0 to 12 min B=2% to 60%, from 12 to 14 min B=60% to 100%. Column washing 100% B 1 min, column equilibration 2% B 2.5 min.
UV detector: wavelength: 220 nm.

[3] = acetate buffer 50 mM pH 4.5, read-out: Solubility Acetate buffer pH 4.5
[4] = phosphate buffer 50 mM pH 7.4, read-out: Solubility phosphate buffer pH 7.4

| SMILES | EC50 [1] | Emax [1] | solubility [2, 3] | solubility [2, 4] |
| --- | --- | --- | --- | --- |
| CCCCCCCCCCCCCCCC(=O)N[C@@H](CCC(=O)N[C@@H](CCC(=O)N[C@@H](CCC(=O)NCCCOCCOCCOCCCNC(=O)CCC(=O)NCCCOCCOCCOCCCNC(=O)CCC(=O)NCCCOCCOCCOCCCNC(=O)CCC(=O)NCCCOCCOCCOCCCNC(=O)CCC(=O)NCCCC[C@H](NC(=O)CNC(=O)[C@H](CCC(=O)O)NC(=O)C(C)(C)NC(=O)C(C)(C)NC(=O)[C@@H](NC(=O)[C@H](CCCCNC(C)=O)NC(=O)[C@H](C)NC(=O)[C@H](CCCNC(=N)N)NC(=O)[C@@H](NC(=O)[C@H](CCCNC(=N)N)NC(=O)[C@H](CCC(=O)O)NC(=O)[C@H](CCCNC(=N)N)NC(=O)CNC(=O)[C@H](CCC(=O)O)NC(=O)[C@H](CC(C)C)NC(C)=O)C(C)C)[C@@H](C)CC)C(=O)N[C@@H](CO)C(=O)N[C@H](C(=O)N[C@@H](Cc1c[nH]c2ccccc12)C(=O)N[C@@H](CO)C(=O)NC(C)(C)C(=O)N[C@@H](CCCNC(=N)N)C(=O)N[C@@H](CCCNC(=N)N)C(=O)N[C@@H](CCCCNC(C)=O)C(N)=O)[C@@H](C)O)C(=O)O)C(=O)O)C(=O)O [compound 75] (Ac-LEGRERVRAK(Ac)I[Aib][Aib]EGK([Suc-X5])STWS[Aib]RRK(Ac)-NH2) | 0.19 nM | 97% | 8.58 mg/mL (≈ 1800 µM) | 9.56 mg/mL (≈ 2010 µM) |
| CCCCCCCCCCCCCCCC(=O)N[C@@H](CCC(=O)N[C@@H](CCC(=O)N[C@@H](CCC(=O)NCCCOCCOCCOCCCNC(=O)CCC(=O)NCCCOCCOCCOCCCNC(=O)CCC(=O)NCCCOCCOCCOCCCNC(=O)CCC(=O)NCCCC[C@H](NC(=O)CNC(=O)[C@H](CCC(=O)O)NC(=O)C(C)(C)NC(=O)C(C)(C)NC(=O)[C@@H](NC(=O)[C@H](CCCCNC(C)=O)NC(=O)C(C)(C)NC(=O)[C@H](CCCNC(=N)N)NC(=O)[C@@H](NC(=O)[C@H](CCCNC(=N)N)NC(=O)[C@H](CCC(=O)O)NC(=O)[C@H](CCCNC(=N)N)NC(=O)CNC(=O)[C@H](CCC(=O)O)NC(=O)[C@H](CC(C)C)NC(C)=O)C(C)C)[C@@H](C)CC)C(=O)N[C@@H](CO)C(=O)N[C@H](C(=O)N[C@@H](Cc1c[nH]c2ccccc12)C(=O)N[C@@H](CO)C(=O)NC(C)(C)C(=O)N[C@@H](CCCNC(=N)N)C(=O)N[C@@H](CCCNC(=N)N)C(=O)N[C@@H](CCCCNC(C)=O)C(N)=O)[C@@H](C)O)C(=O)O)C(=O)O)C(=O)O [compound 85] (Ac-LEGRERVR[Aib]K(Ac)I[Aib][Aib]EGK([Suc-X1])STWS[Aib]RRK(Ac)-NH2) | 0.3 nM | 92% | – | – |
| CCCCCCCCCCCCCCCC(=O)N[C@@H](CCC(=O)N[C@@H](CCC(=O)N[C@@H](CCC(=O)NCCOCCOCC(=O)NCCOCCOCC(=O)NCCOCCOCC(=O)NCCCC[C@H](NC(=O)CNC(=O)[C@H](CCC(=O)O)NC(=O)C(C)(C)NC(=O)C(C)(C)NC(=O)[C@@H](NC(=O)[C@H](CCCCNC(C)=O)NC(=O)[C@H](C)NC(=O)[C@H](CCCNC(=N)N)NC(=O)[C@@H](NC(=O)[C@H](CCCCN)NC(=O)[C@H](CCC(=O)O)NC(=O)[C@H](CCCNC(=N)N)NC(=O)CNC(=O)[C@H](CCC(=O)O)NC(=O)[C@H](CC(C)C)NC(C)=O)C(C)C)[C@@H](C)CC)C(=O)N[C@@H](CO)C(=O)N[C@H](C(=O)N[C@@H](Cc1c[nH]c2ccccc12)C(=O)N[C@@H](CO)C(=O)NC(C)(C)C(=O)N[C@@H](CCCNC(=N)N)C(=O)N[C@@H](CCCCN)C(=O)N[C@@H](CCCCNC(C)=O)C(N)=O)[C@@H](C)O)C(=O)O)C(=O)O)C(=O)O [compound 19] (Ac-LEGREKVRAK(Ac)I[Aib][Aib]EGK([AEEA-AEEA-AEEA-γGlu-γGlu-γGlu-Palmitoyl])STWS[Aib]RKK(Ac)-NH2) | 11.5 nM | 94% | – | – |

Next, values leading:

| EC50 [1] | Emax [1] | solubility [2, 3] | solubility [2, 4] | SMILES |
| --- | --- | --- | --- | --- |
| 2.2 nM | 97% | 11.1 mg/mL (≈ 2520 µM) | 10.7 mg/mL (≈ 2440 µM) | CCCCCCCCCCCCCCCC(=O)N[C@@H](CCC(=O)N[C@@H](CCC(=O)N[C@@H](CCC(=O)NCCCOCCOCCOCCCNC(=O)CCC(=O)NCCCOCCOCCOCCCNC(=O)CCC(=O)NCCCOCCOCCOCCCNC(=O)CCC(=O)NCCCC[C@H](NC(=O)CNC(=O)[C@H](CCC(=O)O)NC(=O)C(C)(C)NC(=O)C(C)(C)NC(=O)[C@@H](NC(=O)[C@H](CCCCNC(C)=O)NC(=O)[C@H](C)NC(=O)[C@H](CCCNC(=N)N)NC(=O)[C@@H](NC(=O)[C@H](CCCCN)NC(=O)[C@H](CCC(=O)O)NC(=O)[C@H](CCCNC(=N)N)NC(=O)CNC(=O)[C@H](CCC(=O)O)NC(=O)[C@H](CC(C)C)NC(C)=O)C(C)C)[C@@H](C)CC)C(=O)N[C@@H](CO)C(=O)N[C@H](C(=O)N[C@@H](Cc1c[nH]c2ccccc12)C(=O)N[C@H](CO)C(=O)N[C@@H](CCCCN)C(=O)N[C@@H](CCCNC(=N)N)C(=O)N[C@@H](C)C(=O)N[C@@H](CCCCNC(C)=O)C(N)=O)[C@@H](C)O)C(=O)O)C(=O)O)C(=O)O [compound 44] (Ac-LEGREKVRAK(Ac)I[Aib][Aib]EGK([Suc-X1])STW[dS]KRAK(Ac)-NH2) |
| 0.17 nM | 96% | – | – | CCCCCCCCCCCCCCCC(=O)N[C@@H](CCC(=O)N[C@@H](CCC(=O)N[C@@H](CCC(=O)NCCCOCCOCCOCCCNC(=O)CCC(=O)NCCCOCCOCCOCCCNC(=O)CCC(=O)NCCCOCCOCCOCCCNC(=O)CCC(=O)NCCCC[C@H](NC(=O)CNC(=O)[C@H](CCC(=O)O)NC(=O)C(C)(C)NC(=O)C(C)(C)NC(=O)[C@@H](NC(=O)[C@H](CCCCNC(C)=O)NC(=O)[C@H](C)NC(=O)[C@H](CCCNC(=N)N)NC(=O)[C@@H](NC(=O)[C@H](CCCCN)NC(=O)[C@H](CCC(=O)O)NC(=O)[C@H](CCCNC(=N)N)NC(=O)CNC(=O)[C@H](CCC(=O)O)NC(=O)[C@H](CC(C)C)NC(C)=O)C(C)C)[C@@H](C)CC)C(=O)N[C@@H](CO)C(=O)N[C@H](C(=O)N[C@@H](Cc1ccccc1)C(=O)N[C@@H](CO)C(=O)N[C@@H](CCCCCN)C(=O)N[C@@H](CCCNC(=N)N)C(=O)N[C@@H](C)C(=O)N[C@@H](CCCCNC(C)=O)C(N)=O)[C@@H](C)O)C(=O)O)C(=O)O)C(=O)O [compound 88] (Ac-LEGREKVRAK(Ac)I[Aib][Aib]EGK([Suc-X1])STFS[hLys]RAK(Ac)-NH2) |
| 1.74 nM | 88% | – | – | CCCCCCCCCCCCCCCC(=O)N[C@@H](CCC(=O)N[C@@H](CCC(=O)N[C@@H](CCC(=O)NCCCOCCOCCOCCCNC(=O)CCC(=O)NCCCOCCOCCOCCCNC(=O)CCC(=O)NCCCOCCOCCOCCCNC(=O)CCC(=O)NCCCC[C@H](NC(=O)CNC(=O)[C@H](CCC(=O)O)NC(=O)C(C)(C)NC(=O)C(C)(C)NC(=O)[C@@H](NC(=O)[C@H](CCCCNC(C)=O)NC(=O)[C@H](C)NC(=O)[C@H](CCCNC(=N)N)NC(=O)[C@@H](NC(=O)[C@H](CCCCN)NC(=O)[C@H](CCC(=O)O)NC(=O)[C@H](CCCNC(=N)N)NC(=O)CNC(=O)[C@H](CCC(=O)O)NC(=O)[C@H](CC(C)C)NC(C)=O)C(C)C)[C@@H](C)CC)C(=O)N[C@@H](CO)C(=O)N[C@H](C(=O)N[C@@H](Cc1ccccc1)C(=O)N[C@H](C(=O)N[C@@H](CCCNC(=N)N)C(=O)N[C@@H](CCCNC(=N)N)C(=O)N[C@@H](C)C(=O)N[C@@H](CCCCNC(C)=O)C(N)=O)C(C)C)[C@@H](C)O)C(=O)O)C(=O)O)C(=O)O [compound 94] (Ac-LEGREKVRAK(Ac)I[Aib][Aib]EGK([Suc-X1])STFVRRAK(Ac)-NH2) |
